In patent publication US12552811B2, “Immunosuppressant, and preparation method therefor and use thereof” (Abbisko Therapeutics Co., Ltd., priority 2020, dated 2026):
pEC50, pIC50: −log10 of the molar value.

What was measured:
[1] = Jurkat reporter gene cellular assay; type: cell-based; conditions: Homo sapiens; Jurkat/NF-κB-luc/PD1 + Raji-PD-L1 coculture, OKT3 1 μg/mL, 6 hrs, activation fold; read-out: Cell Activity EC50
Protocol: The effect of compounds of the examples of the present invention and positive compounds on the interaction between PD-1 and PD-L1 expressed on cell surfaces, and the related influence on T cell functions, were determined by a Jurkat reporter gene cellular assay.
Briefly, the reporter gene plasmid of NF-κB-luc and the plasmid of human PD-1 were transfected into Jurkat cells to establish a stably transfected cell line capable of stably expressing both PD-1 and NF-κB-Luc reporter genes; the expression level of PD-1 on the cell surface was confirmed by flow cytometry; and the expression of the reporter gene was confirmed via the response of the reporter gene stimulated by OKT-3 and Raiji cells.
In addition, the plasmid of human PD-L1 was transfected into Raji cells to obtain a cell line capable of stably expressing PD-L1. Jurkat/NF-κB-luc/PD1 cells and Raji-PD-L1 cells were then cocultured and stimulated with OKT-3. On this basis, the compounds were added, and the enhancement of the signal pathway of T cell activation by the inhibitory effect of the compounds on the interaction between PD-1 and PD-L1 was evaluated by readings of reporter gene responses. The specific experimental process was as follows: • 1) 30 μL of compound or antibody solution was added to each well of a white 96-well plate (coming, 3610) at different diluted concentrations, and 10 μL of OKT3 (Biolegend, 317326) was then added (the final concentration of OKT3: 1 μg/mL); • 2) 20 μL of Raji-PD-L1 cell suspension was added to each well with 5*10^4 cells for each well, and was incubated in an incubator for 20 min: • 3) 20 μL of Jurkat/NF-κb-luc/PD-1 cell suspension was added to each well with 5*10^4 cells for each well, and well mixed, and 6 hrs later, Bright-glo (Promega, E2620) was applied and plates were read on Envision; • 4) The reading of each well treated with the compound was compared with the reading of each well treated with DMSO to obtain the activation fold of the compound; • 5) EC50 values of compounds and positive compounds of the examples of the present invention were determined by non-linear regression analysis of activation folds at different compound concentrations.

[2] = target: interaction between PD-1 and PD-L1 (Homo sapiens (Human), UniProt Q9NZQ7); assay: PD1-PDL1 HTRF binding activity test; conditions: Cisbio PD-1/PD-L1 binding assay kit
Chain of interaction between PD-1 and PD-L1 (Q9NZQ7 19-238): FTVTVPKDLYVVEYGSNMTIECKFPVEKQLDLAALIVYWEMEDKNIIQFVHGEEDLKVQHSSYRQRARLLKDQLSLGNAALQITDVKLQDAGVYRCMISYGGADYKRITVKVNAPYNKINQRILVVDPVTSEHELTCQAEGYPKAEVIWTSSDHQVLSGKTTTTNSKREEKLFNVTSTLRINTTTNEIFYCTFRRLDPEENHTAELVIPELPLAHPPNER
Protocol: I. PD1-PDL1 HTRF Binding Activity Test
The effect of compounds of the examples of the present invention on the interaction between PD-1 and PD-L1 was determined by the PD-1/PD-L1 binding assay kit from Cisbio (#64ICP01PEG or 64ICP01PEH). The detailed experimental process was as follows: • 1) Pre-diluted compound solution, 4 μL of Tag1-PD-L1 and 4 μL of Tag2-PD1 were added to each well of a 384-well plate: • 2) After the mixture was incubated at room temperature for 15 min, 5 μL of anti-Tag1-Eu3+ antibody and 5 μL of anti-Tag2-XL665 antibody were then added; • 3) After incubated for 2 hrs at room temperature or overnight at 4° C., plates were read on Envision of Pelkin Elmer; and readings at 665 nm and 620 nm were recorded, and the ratio of the two readings was taken as a reading for each well; • 4) The reading of each well after compound treatment was compared with the reading of DMSO treated wells to obtain the percent inhibition of the compound; • 5) IC50 values of compounds and positive compounds of the examples of the present invention were determined by non-linear regression analysis of percent inhibition at different compound concentrations. II. Jurkat Reporter Gene Cellular Assay

[3] = Pharmacokinetic assay in mice; type: in vivo; conditions: male, mouse; ICR mice, PO 10 mg/kg, plasma
Protocol: III. Pharmacokinetic Assay in Mice
The purpose of this study was to study the pharmacokinetic behaviors of some compounds of the present invention, and administration routes were: per oral administration (PO) to ICR mice at a dose of 10 mg/kg.
The compounds used in this test came from the compounds of the specific examples of the present invention.
ICR mice, male, N=3, with the original source of Shanghai Sippr-BK Laboratory Animal Co. Ltd.
2.3 Preparation and Administration of Drug
The compounds were weighed, and dissolved in a solvent of 0.5% SDS+0.5% CMCNa. The mixture solutions were mixed well by shaking and ultrasonic treatment to obtain colorless clear solutions. The solutions were orally administered to nine mice after an overnight fast. The dosage of administration was 10 mg/kg.
• 1) With about 90 μL/time point, blood was drawn from the submaxillary vein, and heparin sodium was added for anticoagulation. The blood samples were placed onto the ice, and were centrifuged (centrifugation conditions: 8000 r/min, 6 min, 2-8° C.) within 1 hr to obtain plasmas. • 2) The time points for blood sampling were at 0 hr, 0.25 hr, 0.5 hr, 1 hr, 2 hrs, 4 hrs, 6 hrs, 8 hrs and 24 hrs after administration. The samples were stored in a refrigerator at −20° C. • 3) 40 μL of plasma sample was added to 160 μL of cold acetonitrile containing an internal standard, and the mixture solution was vortexed for 3 min and centrifuged at 11,000 r/min for 5 min. • 4) 100 μL of supernate was taken and added to 100 μL of water, and 5 μL of the sample was taken and analyzed by LC/MS/MS.
The compounds from some representative examples of the present invention were administered and tested according to the above method, and their prototype compounds were detected.

pEC50 [1]	Structure (SMILES)	other results
5.84	CCOC(=O)[C@@H](CO)NCc1cnc2c(Nc3cccc(-c4cccc(/C=C(\F)c5cc6c(cn5)CN(C[C@@H](C)O)CC6)c4Cl)c3Cl)nccc2c1 [Example 72, ethyl ((8-((2,2′-dichloro-3′-((Z)-2-fluoro-2-(7-((R)-2-hydroxypropyl)-5,6,7,8-tetrahydro-2,7-naphthyridin-3-yl)vinyl)-[1,1′-biphenyl]-3-yl)amino)-1,7-naphthyridin-3-yl)methyl)-D-serinate]	
5.12	CCOC(=O)[C@@H](CO)NCc1cnc2c(Nc3cccc(-c4cccc(/C=C(\F)c5cc6c(cn5)CN(C(C)C)CC6)c4Cl)c3Cl)nccc2c1 [Example 73, ethyl (Z)-((8-((2,2′-dichloro-3′-(2-fluoro-2-(7-isopropyl-5,6,7,8-tetrahydro-2,7-naphthyridin-3-yl)vinyl)-[1,1′-biphenyl]-3-yl)amino)-1,7-naphthyridin-3-yl)methyl)-D-serinate]	
5.85	Cc1c(/C=C(\F)c2cc3c(cn2)CN(CCC24CCC(C(=O)O)(CC2)C4)CC3)cccc1-c1cccc(Nc2nccc3cc(CNC[C@@H]4CCC(=O)N4)cnc23)c1C [Example 74, (S,Z)-4-(2-(6-(2-(2,2′-dimethyl-3′-((3-((((5-oxopyrrolidin-2-yl)methyl)amino)methyl)-1,7-naphthyridin-8-yl)amino)-[1,1′-biphenyl]-3-yl)-1-fluorovinyl)-3,4-dihydro-2,7-naphthyridin-2(1H)-yl)ethyl)bicyclo [2.2.1]heptane-1-carboxylic acid]	
5.95	O=C1CC[C@@H](CNCc2cnc3c(Nc4cccc(-c5cccc(/C=C(\F)c6cc7c(cn6)CN(CCC68CCC(C(=O)O)(CC6)C8)CC7)c5Cl)c4Cl)nccc3c2)N1 [Example 75, (S,Z)-4-(2-(6-(2-(2,2′-dichloro-3′-((3-((((5-oxopyrrolidin-2-yl)methyl)amino)methyl)-1,7-naphthyridin-8-yl)amino)-[1,1′-biphenyl]-3-yl)-1-fluorovinyl)-3,4-dihydro-2,7-naphthyridin-2(1H)-yl)ethyl)bicyclo [2.2.1]heptane-1-carboxylic acid]	
6.30	O=C1CC[C@@H](CNCc2cnc3c(Nc4cccc(-c5cccc(NC(=O)c6cc7c(cn6)CN(CC68CCC(C(=O)O)(CC6)C8)CC7)c5Cl)c4Cl)nccc3c2)N1 [Example 78, (S)-4-((6-((2,2′-dichloro-3′-((3-((((5-oxopyrrolidin-2-yl)methyl)amino)methyl)-1,7-naphthyridin-8-yl)amino)-[1,1′-biphenyl]-3-yl)carbamoyl)-3,4-dihydro-2,7-naphthyridin-2(1H)-yl)methyl)bicyclo[2.2.1] heptane-1-carboxylic acid]	

Further lines, the molecule ahead of its results:

Structure (SMILES)	pEC50 [1]	other results
CCN1CCc2cc(C(=O)Nc3cccc(-c4cccc(NC(=O)c5nc6c(n5C)CCN(CCC57CCC(C(=O)O)(CC5)C7)C6)c4Cl)c3Cl)ncc2C1 [Example 3, 4-(2-(2-((2,2′-dichloro-3′-(7-ethyl-5,6,7,8-tetrahydro-2,7-naphthyridine-3-carboxamido)-[1,1′-biphenyl]-3-yl)carbamoyl)-1-methyl-1,4,6,7-tetrahydro-5H-imidazo[4,5-c]pyridin-5-yl)ethyl)bicyclo[2.2.1] heptane-1-carboxylic acid]	7.32	pIC50 [2]: 9.76
Cn1c(C(=O)Nc2cccc(-c3cccc(NC(=O)c4cc5c(cn4)CN(C4COC4)CC5)c3Cl)c2Cl)nc2c1CCN(CCC13CCC(C(=O)O)(CC1)C3)C2 [Example 11, 4-(2-(2-((2,2′-dichloro-3′-(7-(oxetan-3-yl)-5,6,7,8-tetrahydro-2,7-naphthyridine-3-carboxamido)-[1,1′-biphenyl]-3-yl)carbamoyl)-1-methyl-1,4,6,7-tetrahydro-5H-imidazo[4,5-c]pyridin-5-yl)ethyl)bicyclo [2.2.1]heptane-1-carboxylic acid]	7.26	pIC50 [2]: 9.96
CC(C)N1CCc2cc(C(=O)Nc3cccc(-c4cccc(NC(=O)c5cc(C6CC6)c(CN6CCCC[C@H]6C(=O)O)cn5)c4Cl)c3Cl)ncc2C1 [Example 32, (S)-1-((4-cyclopropyl-6-((2,2′-dichloro-3′-(7-isopropyl-5,6,7,8-tetrahydro-2,7-naphthyridine-3-carboxamido)-[1,1′-biphenyl]-3-yl)carbamoyl)pyridin-3-yl)methyl)piperidine-2-carboxylic acid]	7.60	AUC(0-t) [3]: 10200 ng·h/mL; Cmax [3]: 2570 ng/mL; MRT [3]: 2.9 h; Tmax [3]: 0.5 h; half-life [3]: 1.3 h
CC(C)N1CCc2cc(C(=O)Nc3cccc(-c4cccc(NC(=O)c5ccc6c(n5)CN(CCC57CCC(C(=O)O)(CC5)C7)CC6)c4Cl)c3Cl)ncc2C1 [Example 68, 4-(2-(2-((2,2′-dichloro-3′-(7-isopropyl-5,6,7,8-tetrahydro-2,7-yridine-3-carboxamido)-[1,1′-biphenyl]-3-yl)carbamoyl)-5,8-dihydro-1,7-naphthyridin-7(6H)-yl)ethyl)bicyclo[2.2.1]heptane-1-carboxylic acid]	6.75	
CC(C)N1CCc2cc(C(=O)Nc3cccc(-c4cccc(NC(=O)c5ccc6c(n5)CCN(CCC57CCC(C(=O)O)(CC5)C7)C6)c4Cl)c3Cl)ncc2C1 [Example 69, 4-(2-(2-((2,2′-dichloro-3′-(7-isopropyl-5,6,7,8-tetrahydro-2,7-naphthyridine-3-carboxamido)-[1,1′-biphenyl]-3-yl)carbamoyl)-7,8-dihydro-1,6-naphthyridin-6(5H)-yl)ethyl)bicyclo[2.2.1]heptane-1-carboxylic acid]	6.42	
C[C@@H](O)CN1CCc2cc(/C(F)=C/c3cccc(-c4cccc(Nc5nccc6cc(CN[C@H](CO)C(=O)O)cnc56)c4Cl)c3Cl)ncc2C1 [Example 70, ((8-((2,2′-dichloro-3′-((Z)-2-fluoro-2-(7-((R)-2-hydroxypropyl)-5,6,7,8-tetrahydro-2,7-naphthyridin-3-yl)vinyl)-[1,1′-biphenyl]-3-yl)amino)-1,7-naphthyridin-3-yl)methyl)-D-serine]	6.02	
CC(C)N1CCc2cc(/C(F)=C/c3cccc(-c4cccc(Nc5nccc6cc(CN[C@H](CO)C(=O)O)cnc56)c4Cl)c3Cl)ncc2C1 [Example 71, (Z)-((8-((2,2′-dichloro-3′-(2-fluoro-2-(7-isopropyl-5,6,7,8-tetrahydro-2,7-naphthyridin-3-yl)vinyl)-[1,1′-biphenyl]-3-yl)amino)-1,7-naphthyridin-3-yl)methyl)-D-serine]	6.11	
